Measured values: the supplement of paper PMC11451515

Tested on: SEM cells
Experiment: cell viability relative to DMSO control; higher = less cytotoxic
Conditions: 48 h
Outline: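 Library compounds in DMSO were pin-dosed in an 11-point threefold series (47 μM to 0.79 nM) onto leukemia cells in 1536-well plates (5 μl). Plates held 500 cells/well of NOMO1 or SEM or 1000 cells/well of P12-Ichikawa, each adapted for at least four passages in each medium. Luminescence was read with CellTiter-Glo One after 48 h at 37°C. Viability means the per-plate percentage relative to DMSO wells, using cell-free wells as background.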

[1] = HPLM + 10% dialyzed FBS, 0.000781 µM
[2] = HPLM + 10% dialyzed FBS, 0.00234 µM
[3] = HPLM + 10% dialyzed FBS, 0.00702 µM
[4] = HPLM + 10% dialyzed FBS, 0.0211 µM
[5] = HPLM + 10% dialyzed FBS, 0.0632 µM
[6] = HPLM + 10% dialyzed FBS, 0.19 µM
[7] = HPLM + 10% dialyzed FBS, 0.569 µM
[8] = HPLM + 10% dialyzed FBS, 1.71 µM
[9] = HPLM + 10% dialyzed FBS, 5.12 µM
[10] = HPLM + 10% dialyzed FBS, 15.4 µM
[11] = HPLM + 10% dialyzed FBS, 46.1 µM
[12] = RPMI 5 mM glucose + 10% FBS, 0.000781 µM
[13] = RPMI 5 mM glucose + 10% FBS, 0.00234 µM
[14] = RPMI 5 mM glucose + 10% FBS, 0.00702 µM
[15] = RPMI 5 mM glucose + 10% FBS, 0.0211 µM
[16] = RPMI 5 mM glucose + 10% FBS, 0.0632 µM
[17] = RPMI 5 mM glucose + 10% FBS, 0.19 µM
[18] = RPMI 5 mM glucose + 10% FBS, 0.569 µM
[19] = RPMI 5 mM glucose + 10% FBS, 1.71 µM
[20] = RPMI 5 mM glucose + 10% FBS, 5.12 µM
[21] = RPMI 5 mM glucose + 10% FBS, 15.4 µM
[22] = RPMI 5 mM glucose + 10% FBS, 46.1 µM
[23] = RPMI 5 mM glucose + 10% dialyzed FBS, 0.000781 µM
[24] = RPMI 5 mM glucose + 10% dialyzed FBS, 0.00234 µM
[25] = RPMI 5 mM glucose + 10% dialyzed FBS, 0.00702 µM
[26] = RPMI 5 mM glucose + 10% dialyzed FBS, 0.0211 µM
[27] = RPMI 5 mM glucose + 10% dialyzed FBS, 0.0632 µM
[28] = RPMI 5 mM glucose + 10% dialyzed FBS, 0.19 µM
[29] = RPMI 5 mM glucose + 10% dialyzed FBS, 0.569 µM
[30] = RPMI 5 mM glucose + 10% dialyzed FBS, 1.71 µM
[31] = RPMI 5 mM glucose + 10% dialyzed FBS, 5.12 µM
[32] = RPMI 5 mM glucose + 10% dialyzed FBS, 15.4 µM
[33] = RPMI 5 mM glucose + 10% dialyzed FBS, 46.1 µM

COc1cc2ncnc(-n3nc(-c4ccccn4)nc3N)c2cc1OC
cell viability [1]: 75.1% | cell viability [2]: 95.7% | cell viability [3]: 96.7% | cell viability [4]: 94.2% | cell viability [5]: 94.9% | cell viability [6]: 103% | cell viability [7]: 79.3% | cell viability [8]: 83.7% | cell viability [9]: 35% | cell viability [10]: 45% | cell viability [11]: 1.68% | cell viability [12]: 105% | cell viability [13]: 103% | cell viability [14]: 114% | cell viability [15]: 100% | cell viability [16]: 85.8% | cell viability [17]: 106% | cell viability [18]: 91.2% | cell viability [19]: 39.1% | cell viability [20]: 3.56% | cell viability [21]: 1.61% | cell viability [22]: 1.33% | cell viability [23]: 83.2% | cell viability [24]: 93.8% | cell viability [25]: 95.1% | cell viability [26]: 85.7% | cell viability [27]: 81.9% | cell viability [28]: 99.8% | cell viability [29]: 83.6% | cell viability [30]: 65.7% | cell viability [31]: 9.89% | cell viability [32]: 11.4% | cell viability [33]: 1.21%

CCC[C@@H]1C[C@@H](C(=O)N[C@@H]([C@H]2O[C@H](SC)[C@H](O)[C@@H](O)[C@H]2O)[C@@H](C)O)N(C)C1.Cl
cell viability [1]: 125% | cell viability [2]: 121% | cell viability [3]: 118% | cell viability [4]: 109% | cell viability [5]: 119% | cell viability [6]: 127% | cell viability [7]: 114% | cell viability [8]: 122% | cell viability [9]: 103% | cell viability [10]: 117% | cell viability [11]: 91% | cell viability [12]: 110% | cell viability [13]: 114% | cell viability [14]: 105% | cell viability [15]: 99.3% | cell viability [16]: 120% | cell viability [17]: 110% | cell viability [18]: 130% | cell viability [19]: 111% | cell viability [20]: 111% | cell viability [21]: 111% | cell viability [22]: 97.4% | cell viability [23]: 113% | cell viability [24]: 119% | cell viability [25]: 141% | cell viability [26]: 118% | cell viability [27]: 136% | cell viability [28]: 133% | cell viability [29]: 132% | cell viability [30]: 137% | cell viability [31]: 125% | cell viability [32]: 104% | cell viability [33]: 116%

COc1cc2nccc(Oc3ccc(NC(=O)C4(C(=O)Nc5ccc(F)cc5)CC4)cc3)c2cc1OC
cell viability [1]: 87.6% | cell viability [2]: 90.6% | cell viability [3]: 71.2% | cell viability [4]: 52.1% | cell viability [5]: 53.5% | cell viability [6]: 48.7% | cell viability [7]: 52.9% | cell viability [8]: 48.3% | cell viability [9]: 47.1% | cell viability [10]: 30.4% | cell viability [11]: 16.7% | cell viability [12]: 92.2% | cell viability [13]: 89.2% | cell viability [14]: 79.6% | cell viability [15]: 62.2% | cell viability [16]: 58.9% | cell viability [17]: 55.4% | cell viability [18]: 56% | cell viability [19]: 51.7% | cell viability [20]: 46.7% | cell viability [21]: 31.2% | cell viability [22]: 5.48% | cell viability [23]: 71.3% | cell viability [24]: 71.6% | cell viability [25]: 57.2% | cell viability [26]: 42.3% | cell viability [27]: 47.9% | cell viability [28]: 43.7% | cell viability [29]: 41.1% | cell viability [30]: 46.4% | cell viability [31]: 40.1% | cell viability [32]: 26.9% | cell viability [33]: 12.6%

ClC1=CC=C(CCCOC/2=N/NC(=O)C(=C2NCC3=CN=CC=C3)/Br)C=C1
cell viability [1]: 105% | cell viability [2]: 115% | cell viability [3]: 112% | cell viability [4]: 115% | cell viability [5]: 116% | cell viability [6]: 115% | cell viability [7]: 70.8% | cell viability [8]: 30.2% | cell viability [9]: 32.7% | cell viability [10]: 16% | cell viability [11]: 7.78% | cell viability [12]: 121% | cell viability [13]: 119% | cell viability [14]: 130% | cell viability [15]: 113% | cell viability [16]: 104% | cell viability [17]: 114% | cell viability [18]: 103% | cell viability [19]: 65.1% | cell viability [20]: 72.2% | cell viability [21]: 26.9% | cell viability [22]: 8.69% | cell viability [23]: 116% | cell viability [24]: 133% | cell viability [25]: 123% | cell viability [26]: 112% | cell viability [27]: 125% | cell viability [28]: 126% | cell viability [29]: 101% | cell viability [30]: 93.8% | cell viability [31]: 84.1% | cell viability [32]: 49.7% | cell viability [33]: 10%

Cl.c1cnc2cc3c(cc2n1)C1CNCC3C1
cell viability [1]: 98.5% | cell viability [2]: 102% | cell viability [3]: 104% | cell viability [4]: 104% | cell viability [5]: 118% | cell viability [6]: 113% | cell viability [7]: 114% | cell viability [8]: 122% | cell viability [9]: 108% | cell viability [10]: 113% | cell viability [11]: 119% | cell viability [12]: 98.7% | cell viability [13]: 94.4% | cell viability [14]: 91.3% | cell viability [15]: 105% | cell viability [16]: 111% | cell viability [17]: 117% | cell viability [18]: 111% | cell viability [19]: 105% | cell viability [20]: 97.7% | cell viability [21]: 110% | cell viability [22]: 120% | cell viability [23]: 101% | cell viability [24]: 93.4% | cell viability [25]: 111% | cell viability [26]: 121% | cell viability [27]: 122% | cell viability [28]: 126% | cell viability [29]: 115% | cell viability [30]: 135% | cell viability [31]: 113% | cell viability [32]: 111% | cell viability [33]: 103%

O=C1Nc2ccccc2/C1=C1\Nc2ccccc2C1=O
cell viability [1]: 82.1% | cell viability [2]: 85.1% | cell viability [3]: 85.5% | cell viability [4]: 84.9% | cell viability [5]: 80.4% | cell viability [6]: 64.2% | cell viability [7]: 63.3% | cell viability [8]: 75% | cell viability [9]: 73.9% | cell viability [10]: 86.8% | cell viability [11]: 69.8% | cell viability [12]: 104% | cell viability [13]: 87.4% | cell viability [14]: 90.6% | cell viability [15]: 87.5% | cell viability [16]: 90.1% | cell viability [17]: 79.4% | cell viability [18]: 84% | cell viability [19]: 71.2% | cell viability [20]: 81.4% | cell viability [21]: 78.4% | cell viability [22]: 77.7% | cell viability [23]: 89.2% | cell viability [24]: 91.7% | cell viability [25]: 85.2% | cell viability [26]: 85.4% | cell viability [27]: 82.5% | cell viability [28]: 70.6% | cell viability [29]: 60.6% | cell viability [30]: 67% | cell viability [31]: 74.4% | cell viability [32]: 86% | cell viability [33]: 80.3%

CCCCCCCCCCCC(CC1OC(=O)C1CCCCCC)OC(=O)C(CC(C)C)NC=O (centres undefined)
cell viability [1]: 86.9% | cell viability [2]: 82.3% | cell viability [3]: 96.1% | cell viability [4]: 99% | cell viability [5]: 92.8% | cell viability [6]: 98.8% | cell viability [7]: 91.4% | cell viability [8]: 98% | cell viability [9]: 83.2% | cell viability [10]: 65.1% | cell viability [11]: 10.1% | cell viability [12]: 82.2% | cell viability [13]: 86.8% | cell viability [14]: 96.6% | cell viability [15]: 86.6% | cell viability [16]: 86.9% | cell viability [17]: 91.2% | cell viability [18]: 79.9% | cell viability [19]: 76.2% | cell viability [20]: 48.2% | cell viability [21]: 24.9% | cell viability [22]: 6.99% | cell viability [23]: 86.9% | cell viability [24]: 90.5% | cell viability [25]: 101% | cell viability [26]: 82.1% | cell viability [27]: 105% | cell viability [28]: 99.4% | cell viability [29]: 108% | cell viability [30]: 87.6% | cell viability [31]: 64.8% | cell viability [32]: 38.1% | cell viability [33]: 7.62%

O=C(O)[C@H](Cc1c[nH]c2ccccc12)N1C(=O)c2ccccc2C1=O
cell viability [1]: 85.2% | cell viability [2]: 63.5% | cell viability [3]: 96.4% | cell viability [4]: 92.4% | cell viability [5]: 99.3% | cell viability [6]: 102% | cell viability [7]: 91.7% | cell viability [8]: 97.8% | cell viability [9]: 105% | cell viability [10]: 99.4% | cell viability [11]: 83.8% | cell viability [12]: 99.1% | cell viability [13]: 52.9% | cell viability [14]: 105% | cell viability [15]: 112% | cell viability [16]: 100% | cell viability [17]: 108% | cell viability [18]: 90.7% | cell viability [19]: 93.3% | cell viability [20]: 92% | cell viability [21]: 84.8% | cell viability [22]: 77.4% | cell viability [23]: 89.8% | cell viability [24]: 41.9% | cell viability [25]: 96.4% | cell viability [26]: 94.8% | cell viability [27]: 83.8% | cell viability [28]: 87.4% | cell viability [29]: 99.3% | cell viability [30]: 84.7% | cell viability [31]: 97.1% | cell viability [32]: 81.9% | cell viability [33]: 68%
